Literature values, collected in patent US4913906A, “Novel controlled release dosage form of valproic acid” (priority 1985, dated 1990).

Key:
[1] = all currently used antiepileptics

SMILES: CCCC(CCC)C(=O)O [VPA, valproic acid]
- elimination half-life compared with other antiepileptics [1]: shortest elimination half-life of all currently used antiepileptics

SMILES: CCCC(CCC)C(N)=O [Valpromide, valpromide]
- fluctuations in the drug plasma level (chronic valpromide treatment): fewer fluctuations in the drug plasma level
- absorption rate (compared with valproic acid): slower absorption rate than valproic acid
- biotransformation to VPA (in vivo): biotransform to VPA before reaching the systemic circulation
